Source: patent US20120309087A1, “CANCER THERAPY” (University Court of The University of Dundee, priority 2006, published 2012)
“And” between values parts separate entries of the source, which are not always exact repeats. Equal entries are not always repeated.

What was measured:
[1] = system: ARE-green fluorescent protein (GFP) reporter HepG2 cell line; details: 90 μM tBHQ; HepG2/GFP-B; cited from earlier work
[2] = system: ARE reporter system in HepG2 cells; assay: Transient pGL-GSTA2.41bp-ARE luciferase reporter in HepG2 cells; details: 50 μM tBHQ
Protocol: (§2) The Dual-luciferase Reporter Assay System (Promega) was used to examine reporter gene activity in transiently transfected cells. Briefly, cells were seeded at a density of 2×10^5 cells/well in 24-well plates and grown in the appropriate medium. After overnight incubation, the cells were transiently transfected with various ARE-luciferase reporter plasmids. The plasmid pRL-TK, encoding Renilla luciferase was used to control for transfection efficiency. Transfections were performed using Lipofectamine 2000 Reagent (Lifer Technologies Inc. Ltd., Coventry, UK) according to the manufacture's instructions. Following transfection, the culture medium was replaced 24 h later with fresh growth medium containing 50 μM tBHQ (in a solution giving a final concentration of 0.1% v/v dimethyl sulfoxide (DMSO)), which was prepared immediately before each experiment. For control experiments, vehicle alone (0.1% v/v DMSO) was added to the growth medium. Cells were left for 24 h to respond to xenobiotics before being harvested and the firefly and Renilla luciferase activities in cell lysates were measured using a luminometer (Turner Designs Model TD-20/20, Promega) following addition of Luciferase Assay Reagent II (Promega). […] The relative luciferase activity was calculated by normalizing firefly luciferase activity to that of Renilla luciferase. […]

[3] = system: ARE-driven luciferase activity in AREc32 cells; assay: Induction of ARE-driven luciferase activity in stable AREc32 reporter cells; type: cell-based, human
[4] = system: ARE reporter system in CHO cells; assay: Transient pGL-GSTA2.41bp-ARE luciferase reporter in CHO cells; details: 50 μM tBHQ
Protocol: as §2

[5] = system: ARE reporter system in MCF7 cells; assay: Transient pGL-GSTA2.41bp-ARE luciferase reporter in MCF7 cells
Protocol: The Dual-luciferase Reporter Assay System (Promega) was used to examine reporter gene activity in transiently transfected cells. Briefly, cells were seeded at a density of 2×10^5 cells/well in 24-well plates and grown in the appropriate medium. After overnight incubation, the cells were transiently transfected with various ARE-luciferase reporter plasmids. The plasmid pRL-TK, encoding Renilla luciferase was used to control for transfection efficiency. Transfections were performed using Lipofectamine 2000 Reagent (Lifer Technologies Inc. Ltd., Coventry, UK) according to the manufacture's instructions. Following transfection, the culture medium was replaced 24 h later with fresh growth medium containing 50 μM tBHQ (in a solution giving a final concentration of 0.1% v/v dimethyl sulfoxide (DMSO)), which was prepared immediately before each experiment. For control experiments, vehicle alone (0.1% v/v DMSO) was added to the growth medium. Cells were left for 24 h to respond to xenobiotics before being harvested and the firefly and Renilla luciferase activities in cell lysates were measured using a luminometer (Turner Designs Model TD-20/20, Promega) following addition of Luciferase Assay Reagent II (Promega). After quenching the reaction, the Renilla luciferase reaction was initiated by adding Stop & Glo Reagent (Promega). The relative luciferase activity was calculated by normalizing firefly luciferase activity to that of Renilla luciferase.
In order to choose an appropriate cell system for the generation of a stable reporter cell line, pGL-GSTA2.41 bp-ARE was transfected into HepG2, MCF7, CHO, Hepa1 cells.

[6] = system: ARE reporter system in Hepa1 cells; assay: Transient pGL-GSTA2.41bp-ARE luciferase reporter in Hepa1 cells; details: 50 μM tBHQ
Protocol: as §2

[7] = system: AKR1C mRNA in AREc32 cells; assay: AKR1C mRNA in AREc32 cells (TaqMan); details: 24 h
[8] = system: AKR1C protein in Caco-2 cells; assay: AKR1C protein in Caco-2 cells (Western blotting); type: cell-based, human; details: 24 hrs
Protocol: (§1) Method: AREc32 cells were seeded out in 96 well plates and treated with DMSO (control), tBHQ (50 μM), tBHQ+BTB09463 (5 μM) or tBHQ+Retinoic acid (1 μM). After 24 hours incubation, cells were washed and lysed before measuring luciferase activity. BTB09463 is 1-{4-[(3,4-dichlorobenzyl)oxy]phenyl}ethan-1-one. […] Method: AREc32 cells were seeded out in 96 well plates and dosed with BTB09463 (2.5, 5 or 10 μM) for 0, 24 or 48 hrs before treatment with tBHQ (50 μM). 24 hours after the addition of tBHQ, cells were washed and lysed before measuring luciferase activity. […] Method: ARE c32 cells were seeded out in 96 well plates and treated with DMSO (control), tBHQ (50 μM), tBHQ+retinoid (0.25, 0.5 and 1 μM). After 24 hours incubation, cells were washed and lysed before measuring luciferase activity. […] See FIG. 16 Method: A. Caco-2 cells were treated with the known ARE-gene inducer sulforaphane (5 μM), either alone or concomitantly with BTB09463 (5 μM) or Retinoic acid (1 μM). After 24 hrs, cell lysates were prepared and Western blotting performed to measure the levels of AKR1C protein. B. MCF7 cells were treated with sulforaphane (5 μM), either alone or concomitantly with BTB09463 (5 μM). After 24 hrs, cell lysates were prepared and Western blots performed to detect the levels of AKR1C and NQO1; GAPDH was used as a loading control in MCF7 cells. […] Method: Caco-2 cells were treated with DMSO (control), BTB09463 (5 μM), sulforaphane (5 μM) or a combination of sulforaphane plus BTB09463. After 24 hrs treatment, cells were harvested and RNA isolated. cDNA for each sample was generated by reverse transcription and subsequently used in real time PCR analysis of gene transcription (TaqMan analysis) for the ARE-driven genes AKR1C1 and NQO1. Data was normalised to the internal control 18S RNA and the relative levels of AKR1C1 and NQO1 calculated using the comparative CT method. […] Method: MCF7 cells were treated with the known ARE-gene inducer sulforaphane (5 μM), either alone or with various retinoids (0.5 μM). After 24 hrs, cell lysates were prepared and Western blots were performed to detect the levels of AKR1C protein present. […] See FIG. 19 Method: ARE reporter cell line AREc23 was seeded into 96 well plates and treated with a previously determined non-toxic concentration of cytotoxic drug. After 24 hours incubation, cells were washed and lysed before measuring luciferase activity. […] See FIG. 20a Method: ARE reporter cell line AREc23 was seeded into 96 well plates and treated with DMSO (control), Carmustine (100 μM), Carmustine+BTB09463 (5 μM) or Carmustine+Retinoic acid (5 μM) After 24 hours incubation, cells were washed and lysed before measuring luciferase activity. […] After 24 hours incubation, cells were washed and lysed before measuring luciferase activity. […]

[9] = system: A549 cells; assay: Cytotoxicity in A549 cells (ATP levels, 72 h); type: cell-based, human; details: Homo sapiens, single agent
[10] = system: AKR1C and NQO1 protein in MCF7 cells; assay: AKR1C and NQO1 protein in MCF7 cells (Western blots); type: cell-based, human; details: 24 hrs
Protocol: Method: AREc32 cells were seeded out in 96 well plates and treated with DMSO (control), tBHQ (50 μM), tBHQ+BTB09463 (5 μM) or tBHQ+Retinoic acid (1 μM). After 24 hours incubation, cells were washed and lysed before measuring luciferase activity. BTB09463 is 1-{4-[(3,4-dichlorobenzyl)oxy]phenyl}ethan-1-one. […] Method: AREc32 cells were seeded out in 96 well plates and dosed with BTB09463 (2.5, 5 or 10 μM) for 0, 24 or 48 hrs before treatment with tBHQ (50 μM). 24 hours after the addition of tBHQ, cells were washed and lysed before measuring luciferase activity. […] Method: ARE c32 cells were seeded out in 96 well plates and treated with DMSO (control), tBHQ (50 μM), tBHQ+retinoid (0.25, 0.5 and 1 μM). After 24 hours incubation, cells were washed and lysed before measuring luciferase activity. […] See FIG. 16 Method: A. Caco-2 cells were treated with the known ARE-gene inducer sulforaphane (5 μM), either alone or concomitantly with BTB09463 (5 μM) or Retinoic acid (1 μM). After 24 hrs, cell lysates were prepared and Western blotting performed to measure the levels of AKR1C protein. B. MCF7 cells were treated with sulforaphane (5 μM), either alone or concomitantly with BTB09463 (5 μM). After 24 hrs, cell lysates were prepared and Western blots performed to detect the levels of AKR1C and NQO1; GAPDH was used as a loading control in MCF7 cells. […] Method: Caco-2 cells were treated with DMSO (control), BTB09463 (5 μM), sulforaphane (5 μM) or a combination of sulforaphane plus BTB09463. After 24 hrs treatment, cells were harvested and RNA isolated. cDNA for each sample was generated by reverse transcription and subsequently used in real time PCR analysis of gene transcription (TaqMan analysis) for the ARE-driven genes AKR1C1 and NQO1. Data was normalised to the internal control 18S RNA and the relative levels of AKR1C1 and NQO1 calculated using the comparative CT method. […] Method: MCF7 cells were treated with the known ARE-gene inducer sulforaphane (5 μM), either alone or with various retinoids (0.5 μM). After 24 hrs, cell lysates were prepared and Western blots were performed to detect the levels of AKR1C protein present. […] See FIG. 19 Method: ARE reporter cell line AREc23 was seeded into 96 well plates and treated with a previously determined non-toxic concentration of cytotoxic drug. After 24 hours incubation, cells were washed and lysed before measuring luciferase activity. […] See FIG. 20a Method: ARE reporter cell line AREc23 was seeded into 96 well plates and treated with DMSO (control), Carmustine (100 μM), Carmustine+BTB09463 (5 μM) or Carmustine+Retinoic acid (5 μM) After 24 hours incubation, cells were washed and lysed before measuring luciferase activity. […] After 24 hours incubation, cells were washed and lysed before measuring luciferase activity. B. Modified repeat of experiment A, with cells being pretreated with L-buthionine-(SR)-sulfoximine (BSO), an inhibitor of enzymes in the glutathione synthesis pathway. After 24 hours incubation, cells were washed and lysed before measuring luciferase activity. […] Method: Caco-2 cells were treated for 24 hrs with DMSO (control), Carmustine (100 μM), Carmustine+BTB09463 (5 μM). After 24 hrs, cell lysates were prepared and Western blots to detect the levels of AKR1C. […] Method: MCF7 cells were treated for 24 hrs with DMSO (control; Lane 1), Sulforaphane (5 μM) (Lane 2), Carmustine (100 μM) (Lane 3), Carmustine+BTB09463 (5 μM) (Lane 5). (Lane 4 represents experimental conditions irrelevant to the application). After 24 hrs, cell lysates were prepared and Western blots to detect the levels of Nrf2, NQO1 and AKR1C proteins.

[11] = system: MCF7 cells; assay: cells; type: cell-based; details: Homo sapiens, single agent
[12] = system: AKR1C protein in LS174 cells; assay: AKR1C protein in LS174 cells; type: cell-based, human; details: data not shown
[13] = system: AKR1C1, NQO1, GCLC, GCLM mRNA in A549 cells; assay: Constitutive mRNA of ARE-driven genes in A549 cells (Taqman); type: cell-based, human; details: 24 hrs
[14] = system: ARE-driven luciferase activity in AREc32 cells; assay: Antagonism of induced ARE-driven luciferase activity in AREc32 cells; type: cell-based, human
[15] = system: AKR1C1 and NQO1 mRNA in Caco-2 cells; assay: AKR1C1 and NQO1 mRNA in Caco-2 cells (TaqMan); type: cell-based, human; details: sulforaphane 5 μM + BTB09463 5 μM, 24 hrs
Protocol: as §1

[16] = system: Fas-induced killing; details: WO 01/57189; cited from earlier work
[17] = HepG2 cells treated with DMSO set at 1
[18] = Carmustine 100 μM + BTB09463 5 μM

SMILES: CC(C)(C)c1cc(O)ccc1O [tBHQ, tert-butylhydroquinone]
- maximal increase of GFP reporter [1]: 3 fold
- Ratio (tBHQ/DMSO) [2]: 2.8 ± 0.9
- Relative luciferase activity (tBHQ treated) [2, 17]: 2.8 ± 0.9
- increase of luciferase activity ([3]; 1 μM tBHQ, 24 h): 2 fold
- increase of luciferase activity ([3]; 5 μM tBHQ, 24 h): 5 fold
- lag phase before increase of luciferase activity ([3]; 10 μM tBHQ alone): approximately 3 hour
- increase of luciferase activity ([3]; 10 μM tBHQ, 8 h): 4 fold
- increase of luciferase activity ([3]; 10 μM tBHQ, 18 h): 10 fold
- induction of luciferase activity ([3]; 10 μM tBHQ, 50 ng pRS-hNrf2 DNA per well (Nrf2 RNAi)): 8 fold
- induction of luciferase activity ([3]; 10 μM tBHQ, 100 ng pRS-hNrf2 DNA per well (Nrf2 RNAi)): 6 fold
- induction of luciferase activity ([3]; 10 μM tBHQ, control cells, no DNA in the transfection mix): 13 fold and 10 fold
- inducible level of luciferase activity ([3]; 10 μM tBHQ, transfection with 50 ng pHyg-EF-hNrf2 per well): 19 fold
- inducible level of luciferase activity ([3]; 10 μM tBHQ, transfection with 100 ng pHyg-EF-hNrf2): 25 fold
- induction of luciferase expression compared to DMSO control ([3]; 50 μM tBHQ, 24 h): 14 fold
- CD, concentration of inducting agent that doubled luciferase reporter activity ([3]; AREc32, 24 h, DMSO set at 1): 1 µM
- Ratio (tBHQ/DMSO) [4]: 2.7 ± 0.1
- Relative luciferase activity (tBHQ treated) [4, 17]: 1171.6 ± 8.8
- Ratio (tBHQ/DMSO) ([5]; 50 μM tBHQ): 52.0 ± 11.9
- Relative luciferase activity (tBHQ treated) ([5]; 50 μM tBHQ, HepG2 cells treated with DMSO set at 1): 2276.1 ± 521.1
- induction of luciferase activity ([5]; overnight treatment with 50 μM tBHQ): up to 50 fold
- Ratio (tBHQ/DMSO) [6]: 3.6 ± 0.5
- Relative luciferase activity (tBHQ treated) [6, 17]: 140.7 ± 19.6
- induction of AKR1C1 mRNA ([7]; 10 μM tBHQ): approximately 15 fold

SMILES: O=NN(CCCl)C(=O)NCCCl [BCNU, carmustine]
- AKR1C protein expression ([8]; Carmustine 100 μM): massive induction
- effect on luciferase activity in AREc32 cells (in words) ([3]; 24 h, sub-lethal doses, no BSO): stronger inducing agent
- Type of modulation ([3]; AREc32, 24 h, grouping of drugs by effect on luciferase activity): Weak inducers
- induction of ARE-driven luciferase activity ([3]; previously determined non-toxic concentration, 24 hours): 4.5 fold
- IC50 [9]: > 1500 µM
- NQO1 and AKR1C protein expression ([10]; Carmustine 100 μM): caused over-expression of NQO1 and AKR1C protein
- induction of AKR1C mRNA ([7]; without BSO, 100 μM BCNU): 3 fold
- IC50 [11]: 291 µM

SMILES: CC(=O)c1ccc(OCc2ccc(Cl)c(Cl)c2)cc1 [BTB09463, 1-{4-[(3,4-dichlorobenzyl)oxy]phenyl}ethan-1-one]
- carmustine induction of AKR1C protein [8, 18]: attenuated
- sulforaphane induction of AKR1C protein ([8]; sulforaphane 5 μM, BTB09463 5 μM or Retinoic acid 1 μM): dramatically reduced
- IC50 [9]: 52 µM
- carmustine induction of AKR1C protein [12]: reproduced in LS174 cells
- carmustine over expression of AKR1C and NQO1 protein [10, 18]: attenuated
- sulforaphane-driven induction of NQO1 and AKR1C protein ([10]; sulforaphane 5 μM + BTB09463 5 μM): potently inhibited
- constitutive expression of AKR1C1 mRNA ([13]; BTB09463 1, 5, 20, 40 μmol/l or retinoids 0.050, 0.20, 0.50, 2.0 μmol/l): inhibited the constitutive expression of AKR1C1 in a concentration-dependent manner
- constitutive mRNA levels of NQO1, GCLC and GCLM ([13]; BTB09463 1-40 μmol/l or retinoic acid 0.050-2.0 μmol/l): repressed the constitutive mRNA levels of NQO1, GCLC and GCLM in a concentration-dependent manner
- suppression of tBHQ induction of luciferase ([14]; 50 μM tBHQ + 5 μM BTB09463, 24 h): approximately 65%
- suppression of tBHQ-mediated induction of luciferase expression, by dosing regimen ([14]; BTB09463 2.5, 5 or 10 μM for 0, 24 or 48 hrs before 50 μM tBHQ): identical under each dosing regimen
- carmustine-mediated induction of luciferase activity ([14]; Carmustine 100 μM + BTB09463 5 μM or Retinoic acid 5 μM, 24 hours): completely suppress
- reduction of sulforaphane-induced AKR1C1 mRNA [15]: 50%
- sulforaphane-induced NQO1 mRNA expression [15]: reduced to basal levels
- IC50 [11]: 28 µM

SMILES: O=c1oc2ccccc2c(O)c1Cc1c(O)c2ccccc2oc1=O [Dirumarol]
- protection conferred by Nrf2 against Fas-induced killing [16]: antagonise protection conferred by Nrf2 against Fas-induced killing
